Reference: PubChem BioAssay (NCI)
Several values for one entry are separate records, joined by “and”; a condition that tells them apart may be missing. Equal values may be shown once.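 Results reflect a 48-hour exposure of cells in 96-well plates to compound at five concentrations. Abbreviation: GI50, concentration required for 50% inhibition of growth. Definition used: TGI = concentration required for complete inhibition of growth.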

Assays:
Assay in all cases: NCI-60 cell line screen, 48 h
OVCAR-5 ovarian = system: OVCAR-5 ovarian
SR leukemia = system: SR leukemia
OVCAR-4 ovarian = system: OVCAR-4 ovarian
SK-MEL-28 melanoma = system: SK-MEL-28 melanoma
CAKI-1 renal = system: CAKI-1 renal
NCI-H226 lung = system: NCI-H226 lung
CCRF-CEM leukemia = system: CCRF-CEM leukemia
786-0 renal = system: 786-0 renal
SF-268 CNS = system: SF-268 CNS
SF-295 CNS = system: SF-295 CNS

| SMILES | TGI (OVCAR-5 ovarian) | TGI (SR leukemia) | TGI (OVCAR-4 ovarian) | TGI (SK-MEL-28 melanoma) | TGI (CAKI-1 renal) | TGI (NCI-H226 lung) | TGI (CCRF-CEM leukemia) | TGI (786-0 renal) | TGI (SF-268 CNS) | TGI (SF-295 CNS) | GI50 (OVCAR-5 ovarian) | GI50 (SR leukemia) | GI50 (OVCAR-4 ovarian) | GI50 (SK-MEL-28 melanoma) | GI50 (CAKI-1 renal) | GI50 (NCI-H226 lung) | GI50 (CCRF-CEM leukemia) | GI50 (786-0 renal) | GI50 (SF-268 CNS) | GI50 (SF-295 CNS) |
| --- | --- | --- | --- | --- | --- | --- | --- | --- | --- | --- | --- | --- | --- | --- | --- | --- | --- | --- | --- | --- |
| CN=C(NC(=S)N(C)C)N(C)C | > 100 µM | > 100 µM | > 100 µM | > 100 µM | > 100 µM | > 100 µM | > 100 µM | > 100 µM | > 100 µM | > 100 µM |  |  |  |  |  |  |  |  |  |  |
| COc1cccc(-c2nn(-c3ccccc3)cc2-c2ccnc(NCCNC(=O)Nc3cccc(C(F)(F)F)c3)c2)c1 | 3.63 µM | 4.97 µM | 8.13 µM | 3.77 µM | 5.62 µM | 5.32 µM | 7 µM | 4.39 µM | 4.49 µM | 3.28 µM | 1.51 µM | 1.91 µM | 2.36 µM | 1.83 µM | 1.95 µM | 2.07 µM | 2.46 µM | 1.93 µM | 2 µM | 1.66 µM |
| Cc1ccc(-c2c3c(nn2-c2ccc(S(N)(=O)=O)cc2)-c2ccccc2C3)cc1 | 63.7 µM | 60.2 µM | 32.8 µM | 33.8 µM | 32.6 µM | 44 µM | > 100 µM | 31.8 µM | 44.7 µM | 47.3 µM | 26.1 µM | 15.2 µM | 15.4 µM | 17.7 µM | 17.7 µM | 16.5 µM | 3.56 µM | 15.2 µM | 20.3 µM | 20.7 µM |
| COc1ccc2c(C3(c4cn(C)c5cc(OC)ccc45)C(=O)Nc4ccc(Cl)cc43)cn(C)c2c1 | > 100 µM | 6.83 µM | > 100 µM | > 100 µM | > 100 µM | > 100 µM | > 100 µM | 70 µM | > 100 µM | > 100 µM | 5.37 µM | 2.64 µM | 3.35 µM | 4.71 µM | 2.04 µM | 5.44 µM | 3.81 µM | 4.12 µM | 3.67 µM | 5.16 µM |
| COc1cccc(/C=N/NC(=S)NC2CC3CCC2C3)c1O (centres undefined) | > 100 µM | 10.8 µM | 4.46 µM | 33.5 µM | 15.9 µM | 10.9 µM | 38.7 µM | 39.6 µM | 21.5 µM | 18 µM | 44.9 µM | 3.08 µM | 1.82 µM | 13.1 µM | 3.33 µM | 2.38 µM | 6.65 µM | 19.5 µM | 5.84 µM | 4.63 µM |
| N[C@@H]1C(=O)N2C(C(=O)OC(c3ccccc3)c3ccccc3)=C(CCl)CS[C@H]12 | > 100 µM | 33.8 µM | > 100 µM | 53.8 µM | > 100 µM | > 100 µM | > 61.6 µM | 98.9 µM | 98.7 µM | > 100 µM | 44.5 µM | 2.12 µM | 44.8 µM | 22.4 µM | > 100 µM | 55.2 µM |  | 39.3 µM | 31.7 µM | > 94.3 µM |
| COc1ccc2c(c1)CC[C@@H]1[C@@H]2CC[C@]2(C)[C@@H](NC(=O)/C=C/c3ccc(O)c(O)c3)CC[C@@H]12 | 20.7 µM | 4.21 µM | 74.7 µM | > 100 µM | 4.09 µM | 6.45 µM | 6.67 µM | 5.48 µM | 11 µM | 27.1 µM | 6.37 µM | 1.51 µM | 11.9 µM | 18.5 µM | 2.03 µM | 2.34 µM | 0.731 µM | 2.34 µM | 2.66 µM | 12.8 µM |
| O=C1C2=C(c3ccccc31)C(c1ccccc1)N1C(=O)CSC1=N2 (centres undefined) | > 100 µM | > 100 µM | > 100 µM | > 100 µM | > 100 µM | > 100 µM | > 100 µM | > 100 µM | > 100 µM | > 100 µM |  |  |  |  |  |  |  |  |  |  |
| O=C(O)C1CCCCC1c1c2ccc(=O)c(O)c-2oc2c(O)c(O)ccc12 (centres undefined) | > 100 µM | > 100 µM | 64 µM | > 100 µM | > 100 µM | 71.5 µM | 3.11 µM | 46.2 µM | > 100 µM | 56.4 µM |  |  |  |  |  |  |  |  |  |  |
| CCOC(=O)c1c(C)n(Cc2ccccc2)c2c1cc(O)c1[nH]c(Cc3ccccc3)nc12 | > 61 µM | 25.3 µM | > 57.3 µM | > 100 µM | 21.8 µM | > 75.9 µM | > 100 µM | 72 µM | > 100 µM | 44.4 µM | > 22.7 µM | 3.23 µM | 10.9 µM | 24.3 µM | 7.77 µM | 12.1 µM | > 21.4 µM | 20.2 µM | 13.8 µM | 11.3 µM |
| CC1=C(/C=C/C(C)=C/C=C/C(C)=C/C=N/NC(=S)NC(=S)N/N=C/C=C(C)/C=C/C=C(C)/C=C/C2=C(C)CCCC2(C)C)C(C)(C)CCC1 | 9.72 µM and 8.04 µM | 8.12 µM and 3.79 µM | 7.84 µM and 5.4 µM | 9.12 µM and 6.78 µM | 7.12 µM and 2.9 µM | 2.68 µM and 2.47 µM | 25.8 µM and 4.45 µM | 5.09 µM and 1.85 µM | 11.9 µM and 9.11 µM | 11.7 µM and 9.42 µM | 3.49 µM and 2.84 µM | 1.43 µM and 0.938 µM | 1.74 µM and 1.22 µM | 3.23 µM and 1.85 µM | 1.6 µM and 0.853 µM | 1.06 µM and 1.05 µM | 1.71 µM and 0.686 µM | 1.75 µM and 0.944 µM | 5.38 µM and 2.47 µM | 4.09 µM and 2.1 µM |
| COc1ccc(/C=c2\sc3n(c2=O)C2C(NN=3)N(C)C(=O)N2C)cc1 (centres undefined) | > 100 µM | > 100 µM | > 100 µM | > 100 µM | > 100 µM | > 100 µM | > 100 µM | > 100 µM | > 100 µM | > 24.5 µM | 2.25 µM | 0.316 µM | > 100 µM | 2.27 µM | 0.563 µM | 1.18 µM | 0.426 µM | 0.492 µM | > 100 µM | 0.917 µM |
| Cc1cccc(C(C)C)c1N1C(=O)C(=O)C(c2nc3ccccc3o2)C(=O)C1=O | > 100 µM | > 100 µM | > 100 µM | > 100 µM | > 100 µM | > 100 µM | 63 µM | > 100 µM | > 100 µM | > 100 µM |  |  |  |  |  |  |  |  |  |  |
| O=S(=O)(O)c1ccc(N=Nc2nc(C(F)(F)F)c(C(F)(F)F)[nH]2)cc1 | 36 µM | 69.9 µM | 50.4 µM | 36.2 µM | 89.4 µM | > 100 µM | > 100 µM | > 100 µM | > 100 µM | > 100 µM |  |  |  |  |  |  |  |  |  |  |
